#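 Dose response: 5 concentrations. Exposure: 48 h. Format: 96-well plates. Endpoint: linear interpolation; highest concentration if not reached. TGI: total growth inhibition.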
# Legend:
# Test in all cases: DTP human tumour cell line panel, 48 h
# M19-MEL melanoma = tested on: M19-MEL melanoma
# DLD-1 colon = tested on: DLD-1 colon
# DMS 114 small cell lung = tested on: DMS 114 small cell lung
# LXFL 529 NSCLC = tested on: LXFL 529 NSCLC
# EKVX NSCLC = tested on: EKVX NSCLC
# KM20L2 colon = tested on: KM20L2 colon
# HOP-18 NSCLC = tested on: HOP-18 NSCLC
# HT29 colon = tested on: HT29 colon
# HOP-92 NSCLC = tested on: HOP-92 NSCLC
# IGROV1 ovarian = tested on: IGROV1 ovarian
# UO-31 renal = tested on: UO-31 renal
# A549 NSCLC = tested on: A549 NSCLC
# LOX IMVI melanoma = tested on: LOX IMVI melanoma
# SK-MEL-5 melanoma = tested on: SK-MEL-5 melanoma
# DMS 273 small cell lung = tested on: DMS 273 small cell lung
# MDA-N = tested on: MDA-N
# MDA-MB-231 breast = tested on: MDA-MB-231 breast
Compound,TGI (M19-MEL melanoma),TGI (DLD-1 colon),TGI (DMS 114 small cell lung),TGI (LXFL 529 NSCLC),TGI (EKVX NSCLC),TGI (KM20L2 colon),TGI (HOP-18 NSCLC),TGI (HT29 colon),TGI (HOP-92 NSCLC),TGI (IGROV1 ovarian),TGI (UO-31 renal),TGI (A549 NSCLC),TGI (LOX IMVI melanoma),TGI (SK-MEL-5 melanoma),TGI (DMS 273 small cell lung),TGI (MDA-N),TGI (MDA-MB-231 breast)
COc1ccc([C@H]2[C@@H]3CCc4ccccc4C3=NN2C(N)=S)cc1OC,> 100 µM,> 100 µM,93.7 µM,> 100 µM,> 100 µM,> 100 µM,> 100 µM,> 100 µM,> 100 µM,> 100 µM,> 100 µM,> 100 µM,> 100 µM,,,,
CC(=O)Nc1ccc(S(=O)(=O)N/N=C(\C)CN2C(=O)c3ccccc3C2=O)cc1,> 100 µM,> 100 µM,,> 100 µM,> 100 µM,> 100 µM,> 100 µM,> 100 µM,,> 100 µM,> 100 µM,> 100 µM,,> 100 µM,> 100 µM,,
CC(=O)NC(CCCCN(Cc1ccccc1)C(=O)N(C)N=O)C(=O)NCc1ccccc1 (configuration not stated),> 100 µM,> 100 µM,> 100 µM,> 100 µM,> 100 µM,> 100 µM,,> 100 µM,> 100 µM,> 100 µM,> 100 µM,> 100 µM,> 100 µM,> 100 µM,> 100 µM,,
COc1ccc(C2S/C(=C\c3ccc([N+](=O)[O-])cc3)C(=O)N2NC(=O)Cc2ccccc2)cc1 (configuration not stated),> 100 µM,> 100 µM,> 100 µM,> 100 µM,,,> 100 µM,> 100 µM,> 100 µM,> 100 µM,> 100 µM,> 100 µM,> 100 µM,> 100 µM,> 100 µM,,
COc1ccc(/C=N/NC(=O)CSc2nc(-c3ccccc3)c(-c3ccccc3)[nH]2)cc1OC,35.3 µM,> 100 µM,> 100 µM,55.1 µM,72.5 µM,41.6 µM,,60.3 µM,84.6 µM,55.5 µM,69.7 µM,> 100 µM,44.8 µM,31.3 µM,40.7 µM,,
COc1cc2c(cc1OC)C(Cc1cc(Br)c(OC)c(OC)c1)=[N+](C)CC2,> 100 µM,> 100 µM,57 µM,> 100 µM,> 100 µM,> 100 µM,> 100 µM,> 100 µM,> 100 µM,> 100 µM,> 100 µM,> 100 µM,> 100 µM,> 100 µM,,,
CC1(C)OC2C(O1)[C@H]1OC(C(Cl)(Cl)Cl)=N[C@H]1C(I)[C@H]2N1C(=O)c2ccccc2C1=O (some centres not stated),> 100 µM,> 100 µM,> 100 µM,> 100 µM,> 100 µM,> 100 µM,> 100 µM,> 100 µM,> 100 µM,61.7 µM,,97.5 µM,> 100 µM,> 100 µM,> 100 µM,,
CN(C)CCSC(=Nc1ccccc1)n1cccc1,> 100 µM,> 100 µM,80.8 µM,> 100 µM,,> 100 µM,> 100 µM,> 100 µM,82.1 µM,> 100 µM,> 100 µM,> 100 µM,> 100 µM,> 100 µM,> 100 µM,,
O=C(c1nc2ccc(Cl)cc2[nH]c1=O)C(O)c1ccco1 (configuration not stated),> 100 µM,> 100 µM,> 100 µM,> 100 µM,> 100 µM,85.1 µM,> 100 µM,> 100 µM,> 100 µM,> 100 µM,> 100 µM,> 100 µM,> 100 µM,> 100 µM,> 100 µM,,
CC(C)C1COC(C(C)(C)C2=N[C@@H](C(C)C)CO2)=N1 (some centres not stated),> 100 µM,> 100 µM,> 100 µM,> 100 µM,> 100 µM,> 100 µM,> 100 µM,> 100 µM,> 100 µM,> 100 µM,> 100 µM,> 100 µM,> 100 µM,> 100 µM,> 100 µM,,
FC(F)(F)c1nc2c(ccc3[nH]c4c(-c5ccccc5)nccc4c32)[nH]1,> 100 µM,> 100 µM,> 61 µM,> 100 µM,> 100 µM,> 100 µM,> 100 µM,> 100 µM,> 100 µM,> 100 µM,> 100 µM,> 100 µM,> 75.9 µM,> 100 µM,,,
CC1=C(c2ccccc2)CON(c2ccccc2)C1,> 100 µM,,> 100 µM,> 100 µM,> 100 µM,> 100 µM,,> 100 µM,,> 100 µM,97.5 µM,> 100 µM,> 100 µM,47.5 µM,,,
Cc1cc(=O)[nH]c(Sc2ccc([N+](=O)[O-])cc2[N+](=O)[O-])n1,,,,,> 57.2 µM,,,19.1 µM,19.2 µM,> 100 µM,37.1 µM,40.2 µM,8.67 µM,31.3 µM,,40.8 µM,46.9 µM
OCCCN=C1N=C(Cl)/C(=C\c2ccccc2)N1,,,,,> 100 µM,,,> 100 µM,> 100 µM,> 100 µM,> 100 µM,> 100 µM,> 100 µM,> 100 µM,,> 100 µM,> 100 µM
COc1cc(CO)cc2c1[nH]c1ccccc12,> 25 µM,> 25 µM,> 25 µM,> 25 µM,,> 25 µM,> 25 µM,> 25 µM,> 25 µM,> 25 µM,> 25 µM,> 25 µM,> 25 µM,> 25 µM,> 25 µM,,
CN(C(=O)C12C3(C(=O)O)C4C5(C(=O)O)C3C1(C(=O)O)C5C42C(=O)O)C(C)(C)C (configuration not stated),,,,,> 100 µM,,,> 100 µM,> 100 µM,> 100 µM,> 100 µM,> 100 µM,> 100 µM,> 100 µM,,> 100 µM,> 100 µM
